Reference: ChEMBL document CHEMBL1201862, “PubChem BioAssay data set” (2004)
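Step 1: Grow cells in 96-well plates. Step 2: Expose to compound for 48 hours at 5 concentrations. Step 3: Interpolate endpoints linearly; if unreached, use highest concentration. GI50 is the concentration that inhibits growth by half.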 Calls of active or inactive are those of the source. No stated cut-off is given here; in the data, active = GI50 up to about 1.1 µM and inactive = higher.

Experiments:
Assay in all cases: NCI anticancer screen, dose series, 48 h
SK-MEL-28 = tested on: SK-MEL-28
HCT-15 = tested on: HCT-15
IGROV-1 = tested on: IGROV-1
T47D = tested on: T47D
K562 = tested on: K562
PC-3 = tested on: PC-3
DU-145 = tested on: DU-145
SF-268 = tested on: SF-268
HOP-62 = tested on: HOP-62
BT-549 = tested on: BT-549
SN12C = tested on: SN12C
HOP-92 = tested on: HOP-92
COLO 205 = tested on: COLO 205
RXF 393 = tested on: RXF 393
SK-MEL-5 = tested on: SK-MEL-5
NCI-H522 = tested on: NCI-H522
A549 = tested on: A549
CAKI-1 = tested on: CAKI-1
M14 = tested on: M14
HCT-116 = tested on: HCT-116
A498 = tested on: A498
MDA-N = tested on: MDA-N
786-0 = tested on: 786-0
MCF7 = tested on: MCF7
ACHN = tested on: ACHN
OVCAR-3 = tested on: OVCAR-3
MOLT-4 = tested on: MOLT-4
MDA-MB-231 = tested on: MDA-MB-231
SF-295 = tested on: SF-295
LOX IMVI = tested on: LOX IMVI
NCI-H226 = tested on: NCI-H226
SK-MEL-2 = tested on: SK-MEL-2
UACC-257 = tested on: UACC-257
CCRF-CEM = tested on: CCRF-CEM
NCI-H23 = tested on: NCI-H23
OVCAR-4 = tested on: OVCAR-4
HT-29 = tested on: HT-29
Malme-3M = tested on: Malme-3M
SNB-19 = tested on: SNB-19
OVCAR-8 = tested on: OVCAR-8
U-251 = tested on: U-251
OVCAR-5 = tested on: OVCAR-5
HL-60 = tested on: HL-60
UACC-62 = tested on: UACC-62
UO-31 = tested on: UO-31
SK-OV-3 = tested on: SK-OV-3
SF-539 = tested on: SF-539
HCC 2998 = tested on: HCC 2998
NCI/ADR-RES = tested on: NCI/ADR-RES
RPMI-8226 = tested on: RPMI-8226
SNB-75 = tested on: SNB-75
Hs-578T = tested on: Hs-578T
EKVX = tested on: EKVX
TK-10 = tested on: TK-10
MDA-MB-435 = tested on: MDA-MB-435
SW-620 = tested on: SW-620
SR = tested on: SR
KM12 = tested on: KM12
NCI-H460 = tested on: NCI-H460

COC(=O)[C@]1(C)CCC[C@@]2(C)[C@@H]3C[C@@H]4[C@H]5C[C@@]3(CC[C@@H]21)C[C@@]45C
GI50 (SK-MEL-28): 17.5 µM (inactive) | GI50 (HCT-15): 16.2 µM | GI50 (IGROV-1): 19.3 µM (inactive) | GI50 (T47D): 23.2 µM (inactive) | GI50 (K562): 0.643 µM (active) | GI50 (PC-3): 15.2 µM (inactive) | GI50 (DU-145): 25.8 µM (inactive) | GI50 (SF-268): 17.9 µM (inactive) | GI50 (HOP-62): 17.8 µM (inactive) | GI50 (BT-549): 16.5 µM (inactive) | GI50 (SN12C): 19.2 µM (inactive) | GI50 (HOP-92): 15.2 µM (inactive) | GI50 (COLO 205): 20.5 µM (inactive) | GI50 (RXF 393): 17.1 µM (inactive) | GI50 (SK-MEL-5): 17.2 µM (inactive) | GI50 (NCI-H522): 16.8 µM (inactive) | GI50 (A549): 14.1 µM (inactive) | GI50 (CAKI-1): 16.4 µM (inactive) | GI50 (M14): 20.7 µM (inactive) | GI50 (HCT-116): 20 µM (inactive) | GI50 (A498): 17.2 µM (inactive) | GI50 (MDA-N): 17.9 µM (inactive) | GI50 (786-0): 16.1 µM (inactive) | GI50 (MCF7): 14.9 µM (inactive) | GI50 (ACHN): 15.8 µM (inactive) | GI50 (OVCAR-3): 18.2 µM (inactive) | GI50 (MOLT-4): 14.5 µM (inactive) | GI50 (MDA-MB-231): 15.6 µM (inactive) | GI50 (SF-295): 15.2 µM (inactive) | GI50 (LOX IMVI): 19.7 µM (inactive) | GI50 (NCI-H226): 15.8 µM (inactive) | GI50 (SK-MEL-2): 16.4 µM (inactive) | GI50 (UACC-257): 15.4 µM (inactive) | GI50 (CCRF-CEM): 18 µM (inactive) | GI50 (NCI-H23): 14.6 µM (inactive) | GI50 (OVCAR-4): 13.8 µM (inactive) | GI50 (HT-29): 14.5 µM (inactive) | GI50 (Malme-3M): 22.2 µM (inactive) | GI50 (SNB-19): 13.9 µM (inactive) | GI50 (OVCAR-8): 16.4 µM (inactive) | GI50 (U-251): 24 µM (inactive) | GI50 (OVCAR-5): 18 µM (inactive) | GI50 (HL-60): 2.08 µM (inactive) | GI50 (UACC-62): 14.8 µM (inactive) | GI50 (UO-31): 16 µM (inactive) | GI50 (SK-OV-3): 14.7 µM (inactive) | GI50 (SF-539): 22.1 µM (inactive) | GI50 (HCC 2998): 17.3 µM (inactive) | GI50 (NCI/ADR-RES): 15.7 µM (inactive) | GI50 (RPMI-8226): 10.3 µM (inactive) | GI50 (SNB-75): 17.7 µM (inactive) | GI50 (Hs-578T): 20.5 µM (inactive) | GI50 (EKVX): 15.6 µM (inactive) | GI50 (TK-10): 15.1 µM (inactive) | GI50 (MDA-MB-435): 18.3 µM (inactive) | GI50 (SW-620): 24.3 µM (inactive)

CC(C)(C)C1CCC(=O)/C(=C/CC2CC(=O)N(c3ccccc3)C(=O)C2)C1 (stereo not drawn)
GI50 (SK-MEL-28): 21.2 µM (inactive) | GI50 (HCT-15): 15.5 µM | GI50 (IGROV-1): 19.7 µM (inactive) | GI50 (T47D): 21.8 µM (inactive) | GI50 (SR): 10.3 µM (inactive) | GI50 (K562): 19.5 µM (inactive) | GI50 (PC-3): 27.5 µM (inactive) | GI50 (DU-145): 19.2 µM (inactive) | GI50 (SF-268): 20.1 µM (inactive) | GI50 (HOP-62): 30.2 µM (inactive) | GI50 (BT-549): 20.4 µM (inactive) | GI50 (SN12C): 17.5 µM (inactive) | GI50 (COLO 205): 20.8 µM (inactive) | GI50 (SK-MEL-5): 16.4 µM (inactive) | GI50 (KM12): 18.5 µM (inactive) | GI50 (NCI-H522): 18.9 µM (inactive) | GI50 (CAKI-1): 20.9 µM (inactive) | GI50 (HCT-116): 14.8 µM (inactive) | GI50 (A498): 24.5 µM (inactive) | GI50 (MDA-N): 22.6 µM (inactive) | GI50 (786-0): 19.8 µM (inactive) | GI50 (MCF7): 19.3 µM (inactive) | GI50 (ACHN): 19.9 µM (inactive) | GI50 (OVCAR-3): 23.1 µM (inactive) | GI50 (MOLT-4): 34.1 µM (inactive) | GI50 (MDA-MB-231): 44 µM (inactive) | GI50 (SF-295): 47.8 µM (inactive) | GI50 (LOX IMVI): 13.7 µM (inactive) | GI50 (NCI-H226): 16.1 µM (inactive) | GI50 (SK-MEL-2): 19.4 µM (inactive) | GI50 (UACC-257): 14.7 µM (inactive) | GI50 (NCI-H23): 17.8 µM (inactive) | GI50 (OVCAR-4): 32.7 µM (inactive) | GI50 (HT-29): 19.8 µM (inactive) | GI50 (Malme-3M): 18.6 µM (inactive) | GI50 (SNB-19): 22 µM (inactive) | GI50 (OVCAR-8): 19.8 µM (inactive) | GI50 (U-251): 14.9 µM (inactive) | GI50 (OVCAR-5): 17.4 µM (inactive) | GI50 (HL-60): 26.8 µM (inactive) | GI50 (UACC-62): 14.5 µM (inactive) | GI50 (UO-31): 16.6 µM (inactive) | GI50 (HCC 2998): 23.8 µM (inactive) | GI50 (NCI-H460): 16.6 µM (inactive) | GI50 (NCI/ADR-RES): 17.8 µM (inactive) | GI50 (RPMI-8226): 18.7 µM (inactive) | GI50 (SNB-75): 21.9 µM (inactive) | GI50 (Hs-578T): 33.1 µM (inactive) | GI50 (EKVX): 26 µM (inactive) | GI50 (TK-10): 17.5 µM (inactive) | GI50 (MDA-MB-435): 23.8 µM (inactive) | GI50 (SW-620): 23.4 µM (inactive)

CCCCCCCCCCCCOC1C(COCCN2CCCCC2)OC2OC(C)(C)OC21 (stereo not drawn)
GI50 (SK-MEL-28): 1.82 µM (inactive) | GI50 (HCT-15): 1.79 µM | GI50 (IGROV-1): 1.83 µM (inactive) | GI50 (T47D): 1.94 µM (inactive) | GI50 (SR): < 0.01 µM (active) | GI50 (K562): 1.11 µM (active) | GI50 (PC-3): 1.75 µM (inactive) | GI50 (DU-145): 10 µM (inactive) | GI50 (SF-268): 2.67 µM (inactive) | GI50 (HOP-62): 1.84 µM (inactive) | GI50 (BT-549): 2.21 µM (inactive) | GI50 (SN12C): 2.21 µM (inactive) | GI50 (COLO 205): 1.66 µM (inactive) | GI50 (RXF 393): 1.7 µM (inactive) | GI50 (SK-MEL-5): 1.58 µM (inactive) | GI50 (KM12): 1.64 µM (inactive) | GI50 (NCI-H522): 1.59 µM (inactive) | GI50 (A549): 6.58 µM (inactive) | GI50 (CAKI-1): 1.73 µM (inactive) | GI50 (M14): 1.63 µM (inactive) | GI50 (HCT-116): 1.67 µM (inactive) | GI50 (A498): 14.8 µM (inactive) | GI50 (MDA-N): 1.53 µM (inactive) | GI50 (786-0): 1.73 µM (inactive) | GI50 (MCF7): 1.73 µM (inactive) | GI50 (ACHN): 2.12 µM (inactive) | GI50 (OVCAR-3): 2.5 µM (inactive) | GI50 (MOLT-4): 1.53 µM (inactive) | GI50 (MDA-MB-231): 1.91 µM (inactive) | GI50 (SF-295): 1.69 µM (inactive) | GI50 (LOX IMVI): 1.55 µM (inactive) | GI50 (NCI-H226): 3.99 µM (inactive) | GI50 (SK-MEL-2): 1.73 µM (inactive) | GI50 (UACC-257): 1.74 µM (inactive) | GI50 (CCRF-CEM): 1.1 µM (active) | GI50 (NCI-H23): 2.47 µM (inactive) | GI50 (HT-29): 1.21 µM (inactive) | GI50 (Malme-3M): 1.86 µM (inactive) | GI50 (SNB-19): 2.5 µM (inactive) | GI50 (OVCAR-8): 1.8 µM (inactive) | GI50 (U-251): 2.02 µM (inactive) | GI50 (OVCAR-5): 1.85 µM (inactive) | GI50 (HL-60): 1.24 µM (inactive) | GI50 (UACC-62): 1.84 µM (inactive) | GI50 (UO-31): 1.59 µM (inactive) | GI50 (SK-OV-3): 4.08 µM (inactive) | GI50 (SF-539): 1.76 µM (inactive) | GI50 (HCC 2998): 1.64 µM (inactive) | GI50 (NCI-H460): 1.9 µM (inactive) | GI50 (NCI/ADR-RES): 4.3 µM (inactive) | GI50 (RPMI-8226): 1.52 µM (inactive) | GI50 (Hs-578T): 2 µM (inactive) | GI50 (TK-10): 1.83 µM (inactive) | GI50 (MDA-MB-435): 1.76 µM (inactive) | GI50 (SW-620): 1.77 µM (inactive)
